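GI50 marks 50% less growth. At the TGI there is no net growth.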
Key:
Experiment in all cases: NCI-60 cell line screen, 384-well format
IGROV1 ovarian = system: IGROV1 ovarian
CAKI-1 renal = system: CAKI-1 renal
K-562 leukemia = system: K-562 leukemia
DU-145 prostate = system: DU-145 prostate
HOP-62 NSCLC = system: HOP-62 NSCLC
SF-539 CNS = system: SF-539 CNS
OVCAR-8 ovarian = system: OVCAR-8 ovarian
HOP-92 NSCLC = system: HOP-92 NSCLC
SF-295 CNS = system: SF-295 CNS
SK-MEL-28 melanoma = system: SK-MEL-28 melanoma
OVCAR-5 ovarian = system: OVCAR-5 ovarian
EKVX NSCLC = system: EKVX NSCLC
MOLT-4 leukemia = system: MOLT-4 leukemia
TK-10 renal = system: TK-10 renal
SR leukemia = system: SR leukemia
MDA-MB-435 melanoma = system: MDA-MB-435 melanoma
SN12C renal = system: SN12C renal
MDA-MB-231 breast = system: MDA-MB-231 breast
NCI-H23 lung = system: NCI-H23 lung
SNB-75 CNS = system: SNB-75 CNS
A549 NSCLC = system: A549 NSCLC
786-0 renal = system: 786-0 renal
SF-268 CNS = system: SF-268 CNS
UACC-62 melanoma = system: UACC-62 melanoma
RPMI-8226 leukemia = system: RPMI-8226 leukemia
COLO 205 colon = system: COLO 205 colon
MALME-3M melanoma = system: MALME-3M melanoma
HCC-2998 colon = system: HCC-2998 colon
PC-3 prostate = system: PC-3 prostate
NCI-H522 lung = system: NCI-H522 lung
NCI/ADR-RES ovarian = system: NCI/ADR-RES ovarian
SNB-19 CNS = system: SNB-19 CNS
CCRF-CEM leukemia = system: CCRF-CEM leukemia
OVCAR-3 ovarian = system: OVCAR-3 ovarian
NCI-H226 lung = system: NCI-H226 lung
SK-MEL-5 melanoma = system: SK-MEL-5 melanoma
HL-60(TB) leukemia = system: HL-60(TB) leukemia
M14 melanoma = system: M14 melanoma
ACHN renal = system: ACHN renal
OVCAR-4 ovarian = system: OVCAR-4 ovarian
T-47D breast = system: T-47D breast
SW-620 colon = system: SW-620 colon
HCT-15 colon = system: HCT-15 colon
KM12 colon = system: KM12 colon
HT29 colon = system: HT29 colon
RXF 393 renal = system: RXF 393 renal
MCF7 breast = system: MCF7 breast
UACC-257 melanoma = system: UACC-257 melanoma
LOX IMVI melanoma = system: LOX IMVI melanoma
A498 renal = system: A498 renal
SK-OV-3 ovarian = system: SK-OV-3 ovarian
UO-31 renal = system: UO-31 renal
BT-549 breast = system: BT-549 breast
NCI-H460 NSCLC = system: NCI-H460 NSCLC
HS 578T breast = system: HS 578T breast
NCI-H322M lung = system: NCI-H322M lung

## CCN1Cc2c(ccc(F)c2C#N)O[C@@H](C)CNC(=O)c2c(N)nn3ccc1nc23
IGROV1 ovarian
  GI50: 566 nM
  TGI: 3350 nM
CAKI-1 renal
  GI50: 523 nM
  TGI: 1840 nM
K-562 leukemia
  GI50: 66.4 nM
  TGI: 222 nM
DU-145 prostate
  GI50: 465 nM
  TGI: 2880 nM
HOP-62 NSCLC
  GI50: 1210 nM
  TGI: 11200 nM
SF-539 CNS
  GI50: 3070 nM
  TGI: 13800 nM
OVCAR-8 ovarian
  GI50: 2740 nM
  TGI: 13800 nM
HOP-92 NSCLC
  GI50: 362 nM
  TGI: 1850 nM
SF-295 CNS
  GI50: 153 nM
  TGI: 3020 nM
SK-MEL-28 melanoma
  GI50: 620 nM
  TGI: 3760 nM
OVCAR-5 ovarian
  GI50: 735 nM
  TGI: 9020 nM
EKVX NSCLC
  GI50: 563 nM
  TGI: 10300 nM
MOLT-4 leukemia
  GI50: 198 nM
  TGI: 478 nM
TK-10 renal
  GI50: 868 nM
  TGI: 6620 nM
SR leukemia
  GI50: 310 nM
  TGI: 1020 nM
MDA-MB-435 melanoma
  GI50: 565 nM
  TGI: 10500 nM
SN12C renal
  GI50: 613 nM
  TGI: 4690 nM
MDA-MB-231 breast
  GI50: 438 nM
  TGI: 1970 nM
NCI-H23 lung
  GI50: 264 nM
  TGI: 3480 nM
SNB-75 CNS
  GI50: 892 nM
  TGI: 5370 nM
A549 NSCLC
  GI50: 585 nM
  TGI: 12100 nM
786-0 renal
  GI50: 1340 nM
  TGI: 12900 nM
SF-268 CNS
  GI50: 1760 nM
  TGI: 11900 nM
UACC-62 melanoma
  GI50: 454 nM
  TGI: 2520 nM
RPMI-8226 leukemia
  GI50: 205 nM
  TGI: 598 nM
COLO 205 colon
  GI50: 271 nM
  TGI: 1010 nM
MALME-3M melanoma
  GI50: 436 nM
  TGI: 2410 nM
HCC-2998 colon
  GI50: 4120 nM
  TGI: 20900 nM
PC-3 prostate
  GI50: 1380 nM
  TGI: 17600 nM
NCI-H522 lung
  GI50: 528 nM
  TGI: 14300 nM
NCI/ADR-RES ovarian
  GI50: 3890 nM
  TGI: 15800 nM
SNB-19 CNS
  GI50: 2840 nM
  TGI: 12700 nM
CCRF-CEM leukemia
  GI50: 566 nM
  TGI: 10800 nM
OVCAR-3 ovarian
  GI50: 1420 nM
  TGI: 11200 nM
NCI-H226 lung
  GI50: 1280 nM
  TGI: 4700 nM
SK-MEL-5 melanoma
  GI50: 395 nM
  TGI: 5310 nM
HL-60(TB) leukemia
  GI50: 1140 nM
  TGI: 3010 nM
M14 melanoma
  GI50: 364 nM
  TGI: 1850 nM
ACHN renal
  GI50: 385 nM
  TGI: 2060 nM
OVCAR-4 ovarian
  GI50: 2400 nM
  TGI: 17300 nM
T-47D breast
  GI50: 946 nM
  TGI: 12300 nM
SW-620 colon
  GI50: 3820 nM
  TGI: 16400 nM
HCT-15 colon
  GI50: 757 nM
  TGI: 10300 nM
KM12 colon
  TGI: 14700 nM
HT29 colon
  GI50: 694 nM
  TGI: 12400 nM
RXF 393 renal
  GI50: 1320 nM
  TGI: 7180 nM
MCF7 breast
  GI50: 3160 nM
  TGI: 19400 nM
UACC-257 melanoma
  GI50: 1020 nM
  TGI: 4890 nM
LOX IMVI melanoma
  GI50: 529 nM
  TGI: 1980 nM
A498 renal
  GI50: 379 nM
  TGI: 7560 nM
SK-OV-3 ovarian
  GI50: 282 nM
  TGI: 2360 nM
UO-31 renal
  GI50: 2650 nM
  TGI: 16300 nM
BT-549 breast
  GI50: 2680 nM
  TGI: 15300 nM
NCI-H460 NSCLC
  GI50: 426 nM
  TGI: 11400 nM
HS 578T breast
  GI50: 381 nM
  TGI: 1950 nM
NCI-H322M lung
  GI50: 2200 nM
  TGI: 18800 nM

— PubChem BioAssay (NCI)
